≈ marks a conversion by molar mass, not a printed value.
Legend:
[1] = Metabolic stability in human liver assessed as intrinsic clearance at 1 uM measured up to 30 mins by LC-MS/MS analysis; assay type: ADME, tissue-based; details: read-out: CLH
Staphylococcus aureus [2] = assay: Antibacterial activity against methicillin resistant Staphylococcus aureus USA300 FPR3757 assessed as inhibition of bacterial growth incubated for 20 to 24 hrs by microbroth serial dilution method; assay type: functional; details: time 20-24 hrs, read-out: MIC100
[3] = Metabolic stability in mouse liver microsomes assessed as half-life at 1 uM measured up to 60 mins by LC-MS/MS analysis; assay type: ADME, Microsome
Enterococcus faecalis = assay: Antibacterial activity against Enterococcus faecalis assessed as inhibition of bacterial growth incubated for 20 to 24 hrs by microbroth serial dilution method; assay type: functional; details: time 20-24 hrs, read-out: MIC100
Streptococcus pneumoniae = assay: Antibacterial activity against Streptococcus pneumoniae assessed as inhibition of bacterial growth incubated for 20 to 24 hrs by microbroth serial dilution method; assay type: functional; details: time 20-24 hrs, read-out: MIC100
Enterococcus faecium [4] = assay: Antibacterial activity against vancomycin, ampicillin and ciprofloxacin resistant Enterococcus faecium clinical isolate 5 assessed as inhibition of bacterial growth incubated for 20 to 24 hrs by microbroth serial dilution method; assay type: functional; details: time 20-24 hrs, read-out: MIC100
[5] = Metabolic stability in human liver microsomes assessed as half-life at 1 uM measured up to 30 mins by LC-MS/MS analysis; assay type: ADME, Microsome
[6] = Metabolic stability in mouse liver assessed as intrinsic clearance at 1 uM measured up to 60 mins by LC-MS/MS analysis; assay type: ADME, tissue-based; details: read-out: CLH
Enterococcus faecium [7] = assay: Antibacterial activity against vancomycin, ampicillin and ciprofloxacin resistant Enterococcus faecium clinical isolate 1 assessed as inhibition of bacterial growth incubated for 20 to 24 hrs by microbroth serial dilution method; assay type: functional; details: time 20-24 hrs, read-out: MIC100
Staphylococcus aureus [8] = assay: Antibacterial activity against methicillin susceptible Staphylococcus aureus ATCC 25923 assessed as inhibition of bacterial growth incubated for 20 to 24 hrs by microbroth serial dilution method; assay type: functional; details: time 20-24 hrs, read-out: MIC100
Staphylococcus aureus [9] = assay: Antibacterial activity against methicillin susceptible Staphylococcus aureus ATCC 29213 assessed as inhibition of bacterial growth incubated for 20 to 24 hrs by microbroth serial dilution method; assay type: functional; details: time 20-24 hrs, read-out: MIC100
Staphylococcus aureus [10] = assay: Antibacterial activity against methicillin resistant Staphylococcus aureus clinical isolate 55508 assessed as inhibition of bacterial growth incubated for 20 to 24 hrs by microbroth serial dilution method; assay type: functional; details: time 20-24 hrs, read-out: MIC100
Staphylococcus aureus [11] = assay: Antibacterial activity against mupirocin resistant Staphylococcus aureus 4828 assessed as inhibition of bacterial growth incubated for 20 to 24 hrs by microbroth serial dilution method; assay type: functional; details: time 20-24 hrs, read-out: MIC100
Staphylococcus aureus [12] = assay: Antibacterial activity against methicillin resistant Staphylococcus aureus clinical isolate 933010 assessed as inhibition of bacterial growth incubated for 20 to 24 hrs by microbroth serial dilution method; assay type: functional; details: time 20-24 hrs, read-out: MIC100
Staphylococcus aureus [13] = assay: Antibacterial activity against methicillin resistant Staphylococcus aureus clinical isolate 52518 assessed as inhibition of bacterial growth incubated for 20 to 24 hrs by microbroth serial dilution method; assay type: functional; details: time 20-24 hrs, read-out: MIC100
DU-145 = assay: Cytotoxicity against human DU-145 cells assessed as reduction in cell viability at 1 to 10 uM measured after 3 hrs by Celltiter-Glo reagent based assay; assay type: toxicity; details: du-145, 3 h, dose 1-10 µM
Caco-2 = assay: Cytotoxicity against human Caco-2 cells assessed as reduction in cell viability at 1 to 10 uM measured after 1 to 8 days by Celltiter-Glo reagent based assay; assay type: toxicity; details: caco-2, 10 µM, dose lower 1 µM, time lower 1 day, dose upper 10 µM, time upper 8 day
MDCK-MDR1 = assay: Cytotoxicity against MDCKII-MDR1 cells assessed as reduction in cell viability at 1 to 10 uM measured after 3 hrs by Celltiter-Glo reagent based assay; assay type: toxicity, Canis lupus familiaris; details: dog, mdck-mdr1, 3 h, dose 1-10 µM

Structure (SMILES) | CLint scaled at 1 µM [1] [L/h/kg] | MIC (Staphylococcus aureus [2]) [mg/L] | half-life at 1 µM [3] [min] | MIC (Enterococcus faecalis) [mg/L] | MIC (Streptococcus pneumoniae) [mg/L] | MIC (Enterococcus faecium [4]) [mg/L] | half-life at 1 µM [5] [min] | CLint scaled at 1 µM [6] [L/h/kg] | MIC (Enterococcus faecium [7]) [mg/L] | MIC (Staphylococcus aureus [8]) [mg/L] | MIC (Staphylococcus aureus [9]) [mg/L] | MIC (Staphylococcus aureus [10]) [mg/L] | MIC (Staphylococcus aureus [11]) [mg/L] | MIC (Staphylococcus aureus [12]) [mg/L] | MIC (Staphylococcus aureus [13]) [mg/L] | Activity (DU-145) | Activity (Caco-2) | Activity (MDCK-MDR1)
C=C[C@]1(C)C[C@@H](OC(=O)Cn2cc(-c3cccc(Nc4ncnc5[nH]cnc45)c3)nn2)[C@]2(C)[C@H](C)CC[C@]3(CCC(=O)[C@H]32)[C@@H](C)[C@@H]1O | 188 | 0.06 (≈ 0.0939 µM) | 0.67 | 0.5 (≈ 0.783 µM) | 0.5 (≈ 0.783 µM) | 0.25 (≈ 0.391 µM) | 2 | 489 | 0.25 (≈ 0.391 µM) | – | – | – | – | – | – | – | – | –
C=C[C@]1(C)C[C@@H](OC(=O)Cn2cc(-c3ccc(Cn4cnc5c(N)ncnc54)nc3)nn2)[C@]2(C)[C@H](C)CC[C@]3(CCC(=O)[C@H]32)[C@@H](C)[C@@H]1O | – | – | 0.58 | – | – | – | – | 571 | – | 0.06 (≈ 0.0918 µM) | 0.06 (≈ 0.0918 µM) | – | – | – | – | – | – | –
C=C[C@]1(C)C[C@@H](OC(=O)Cn2cc(-c3cncc(C(O)c4ccc5c(N)ncnn45)c3)nn2)[C@]2(C)[C@H](C)CC[C@]3(CCC(=O)[C@H]32)[C@@H](C)[C@@H]1O (stereo partly specified) | 68.8 | 0.25 (≈ 0.374 µM) | 2.5 | – | – | – | 5.4 | 131 | – | – | – | – | – | – | – | – | – | –
C=C[C@]1(C)C[C@@H](OC(=O)CS[C@@H]2C[C@H]3CC[C@@H](C2)N3C)[C@]2(C)[C@H](C)CC[C@]3(CCC(=O)[C@H]32)[C@@H](C)[C@@H]1O [RETAPAMULIN] | 159 | 0.25 (≈ 0.483 µM) | 1.3 | 0.12 (≈ 0.232 µM) | 0.06 (≈ 0.116 µM) | 0.03 (≈ 0.0579 µM) | 2.4 | 123 | 0.03 (≈ 0.0579 µM) | 0.06 (≈ 0.116 µM) | 0.12 (≈ 0.232 µM) | 0.25 (≈ 0.483 µM) | 0.25 (≈ 0.483 µM) | 0.5 (≈ 0.966 µM) | 0.12 (≈ 0.232 µM) | – | – | –
C=C[C@]1(C)C[C@@H](OC(=O)Cn2cc(-c3ccc(C(O)c4ccc5c(N)ncnn45)cn3)nn2)[C@]2(C)[C@H](C)CC[C@]3(CCC(=O)[C@H]32)[C@@H](C)[C@@H]1O (stereo partly specified) | 275 | 0.03 (≈ 0.0449 µM) | 0.66 | – | – | – | 1.4 | 500 | – | – | – | – | – | – | – | – | – | –
C=C[C@]1(C)C[C@@H](OC(=O)Cn2cc(-c3ccc(C(O)c4ccc5c(N)ncnn45)nc3)nn2)[C@]2(C)[C@H](C)CC[C@]3(CCC(=O)[C@H]32)[C@@H](C)[C@@H]1O (stereo partly specified) | 284 | 0.03 (≈ 0.0449 µM) | 0.74 | – | – | – | 1.3 | 447 | – | – | – | – | – | – | – | – | – | –
C=C[C@]1(C)C[C@@H](OC(=O)Cn2cc(-c3cncc(C(=O)Nc4ccc(OC)nc4)c3)nn2)[C@]2(C)[C@H](C)CC[C@]3(CCC(=O)[C@H]32)[C@@H](C)[C@@H]1O | 164 | 0.03 (≈ 0.0457 µM) | 0.58 | 0.12 (≈ 0.183 µM) | 0.5 (≈ 0.761 µM) | 0.12 (≈ 0.183 µM) | 2.3 | 566 | 0.12 (≈ 0.183 µM) | 0.12 (≈ 0.183 µM) | < 0.015 | 0.06 (≈ 0.0914 µM) | 0.03 (≈ 0.0457 µM) | 0.06 (≈ 0.0914 µM) | 0.06 (≈ 0.0914 µM) | Non-toxic | Non-toxic | Non-toxic
C=C[C@]1(C)C[C@@H](OC(=O)Cn2cc(-c3ccc(C(=O)c4ccc5c(N)ncnn45)cn3)nn2)[C@]2(C)[C@H](C)CC[C@]3(CCC(=O)[C@H]32)[C@@H](C)[C@@H]1O | 221 | 0.06 (≈ 0.09 µM) | 0.54 | – | – | – | 1.7 | > 600 | – | – | – | – | – | – | – | – | – | –
C=C[C@]1(C)C[C@@H](OC(=O)Cn2cc(-c3ccc(Nc4ncnc5[nH]cnc45)cc3)nn2)[C@]2(C)[C@H](C)CC[C@]3(CCC(=O)[C@H]32)[C@@H](C)[C@@H]1O | 17.8 | 0.12 (≈ 0.188 µM) | 1.76 | – | – | – | 23.4 | 187 | – | – | – | – | – | – | – | – | – | –
C=C[C@]1(C)C[C@@H](OC(=O)Cn2cc(-c3cncc(C(=O)Nc4ncnc5[nH]cnc45)c3)nn2)[C@]2(C)[C@H](C)CC[C@]3(CCC(=O)[C@H]32)[C@@H](C)[C@@H]1O | 104 | 0.06 (≈ 0.0899 µM) | 1.3 | – | – | – | 3.6 | 246 | – | – | – | – | – | – | – | – | – | –

From ChEMBL document CHEMBL6134887, “Linker and Head-Group Exploration of Anti-MRSA Triaromatic Pleuromutilins” (J Med Chem, 2025)
